Source: patent US12545673B2, “Imidazopyridine derivative and pharmaceutical composition comprising same as active ingredient” (TSD LIFE SCIENCES CO., LTD., priority 2019, dated 2026)
Like-named read-outs stand apart in the source and are kept apart here.

Assays:
[1] = system: human breast cancer cell line MDA-MB-231; assay: Cancer cell proliferation inhibitory activity evaluation 1 (CCK-8), MDA-MB-231; assay type: cell-based
[2] = system: acute myeloid leukemia cell line U937; assay: Cancer cell proliferation inhibitory activity evaluation 1 (CCK-8), U937; assay type: cell-based; settings: Homo sapiens, read-out: Cancer cell proliferation inhibitory activity U937
[3] = system: colorectal cancer cell line HT-29; assay: Cancer cell proliferation inhibitory activity evaluation 1 (CCK-8), HT-29; assay type: cell-based; settings: Homo sapiens, read-out: Cancer cell proliferation inhibitory activity HT29
[4] = system: chronic myeloid leukemia cell line K562; assay: Cancer cell proliferation inhibitory activity evaluation 1 (CCK-8), K562; assay type: cell-based; settings: Homo sapiens, read-out: Cancer cell proliferation inhibitory activity K562
[5] = system: acute myeloid leukemia cell line U937; assay: Cancer cell proliferation inhibitory activity evaluation 2 (CCK-8), U937; assay type: cell-based; settings: Homo sapiens, read-out: Cancer cell proliferation inhibitory activity U937
[6] = system: acute lymphoblastic leukemia cell line Jurkat; assay: Cancer cell proliferation inhibitory activity evaluation 2 (CCK-8), Jurkat; assay type: cell-based; settings: Homo sapiens
[7] = system: gastric cancer cell line AGS; assay: Cancer cell proliferation inhibitory activity evaluation 2 (CCK-8), AGS; assay type: cell-based; settings: Homo sapiens, read-out: Cancer cell proliferation inhibitory activity AGS
[8] = system: influenza virus PR8; assay: microbe, parasite or virus in culture; assay type: cell-based; settings: for EC50: unidentified influenza virus, PR8, MDCK, read-out: Antiviral activity (EC50, μM) PR8
[9] = system: influenza virus HK; assay: microbe, parasite or virus in culture; assay type: cell-based; settings: for EC50: unidentified influenza virus, MDCK, read-out: Antiviral activity (EC50, μM) HK
[10] = system: influenza virus LE; assay: microbe, parasite or virus in culture; assay type: cell-based; settings: for EC50: unidentified influenza virus, MDCK, read-out: Antiviral activity (EC50, μM) LE
[11] = in vitro; settings: dog
[12] = molecular target: MLK1 (Homo sapiens (Human), UniProt P80192); assay: Evaluation of inhibitory activity of enzyme units, MLK1 ([γ-33P]-ATP filter assay); assay type: biochemical
MLK1, sequence (P80192 whole entry, looked up): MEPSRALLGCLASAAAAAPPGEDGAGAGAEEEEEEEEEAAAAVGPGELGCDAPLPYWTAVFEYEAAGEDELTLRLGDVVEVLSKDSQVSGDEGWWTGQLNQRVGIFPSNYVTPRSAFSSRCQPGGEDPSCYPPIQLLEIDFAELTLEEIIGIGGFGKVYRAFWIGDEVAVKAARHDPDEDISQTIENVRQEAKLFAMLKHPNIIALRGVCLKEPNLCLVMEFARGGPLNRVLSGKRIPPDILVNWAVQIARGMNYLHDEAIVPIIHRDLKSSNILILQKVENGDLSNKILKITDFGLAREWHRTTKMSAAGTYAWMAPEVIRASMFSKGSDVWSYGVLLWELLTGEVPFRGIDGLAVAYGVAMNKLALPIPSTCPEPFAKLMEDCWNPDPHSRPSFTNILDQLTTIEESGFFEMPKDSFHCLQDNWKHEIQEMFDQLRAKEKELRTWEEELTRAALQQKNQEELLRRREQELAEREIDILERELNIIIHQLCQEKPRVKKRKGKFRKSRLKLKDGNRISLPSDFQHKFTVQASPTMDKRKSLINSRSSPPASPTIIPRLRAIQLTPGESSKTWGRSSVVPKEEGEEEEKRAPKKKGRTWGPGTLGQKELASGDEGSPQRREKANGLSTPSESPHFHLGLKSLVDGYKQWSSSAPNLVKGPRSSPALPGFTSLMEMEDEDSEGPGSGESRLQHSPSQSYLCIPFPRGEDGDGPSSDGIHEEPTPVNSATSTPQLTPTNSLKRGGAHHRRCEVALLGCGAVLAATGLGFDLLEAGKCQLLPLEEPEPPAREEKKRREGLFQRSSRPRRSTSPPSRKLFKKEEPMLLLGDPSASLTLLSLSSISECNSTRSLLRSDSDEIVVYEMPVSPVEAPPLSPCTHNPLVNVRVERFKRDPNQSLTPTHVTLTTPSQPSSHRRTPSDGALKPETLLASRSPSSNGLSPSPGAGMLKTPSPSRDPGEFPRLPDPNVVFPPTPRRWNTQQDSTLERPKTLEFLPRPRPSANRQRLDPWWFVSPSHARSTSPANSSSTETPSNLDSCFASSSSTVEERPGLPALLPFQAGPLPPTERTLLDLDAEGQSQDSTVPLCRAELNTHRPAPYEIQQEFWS

[13] = system: α-SMA; assay: Fibrosis inhibition evaluation 1, palmitic acid-induced HepG2, real-time PCR, α-SMA; assay type: cell-based, human; settings: palmitic acid-induced HepG2 (Table 6)
[14] = system: Col1A1; assay: Fibrosis inhibition evaluation 1, palmitic acid-induced HepG2, real-time PCR, Col1A1; assay type: cell-based, human
[15] = system: Col6A3; assay: Fibrosis inhibition evaluation 1, palmitic acid-induced HepG2, real-time PCR, Col6A3; assay type: cell-based, human
[16] = molecular target: LRRK2 wild-type (Homo sapiens (Human), UniProt Q5S007); assay: Evaluation of inhibitory activity against LRRK2 (affinity bead competition binding), wild-type; settings: read-out: Residual active values (%) LRRK2; for remaining binding at 0.1 µM: 100 nM; for remaining binding at 0.5 µM: 500 nM
LRRK2 wild-type, sequence (Q5S007 whole entry, looked up): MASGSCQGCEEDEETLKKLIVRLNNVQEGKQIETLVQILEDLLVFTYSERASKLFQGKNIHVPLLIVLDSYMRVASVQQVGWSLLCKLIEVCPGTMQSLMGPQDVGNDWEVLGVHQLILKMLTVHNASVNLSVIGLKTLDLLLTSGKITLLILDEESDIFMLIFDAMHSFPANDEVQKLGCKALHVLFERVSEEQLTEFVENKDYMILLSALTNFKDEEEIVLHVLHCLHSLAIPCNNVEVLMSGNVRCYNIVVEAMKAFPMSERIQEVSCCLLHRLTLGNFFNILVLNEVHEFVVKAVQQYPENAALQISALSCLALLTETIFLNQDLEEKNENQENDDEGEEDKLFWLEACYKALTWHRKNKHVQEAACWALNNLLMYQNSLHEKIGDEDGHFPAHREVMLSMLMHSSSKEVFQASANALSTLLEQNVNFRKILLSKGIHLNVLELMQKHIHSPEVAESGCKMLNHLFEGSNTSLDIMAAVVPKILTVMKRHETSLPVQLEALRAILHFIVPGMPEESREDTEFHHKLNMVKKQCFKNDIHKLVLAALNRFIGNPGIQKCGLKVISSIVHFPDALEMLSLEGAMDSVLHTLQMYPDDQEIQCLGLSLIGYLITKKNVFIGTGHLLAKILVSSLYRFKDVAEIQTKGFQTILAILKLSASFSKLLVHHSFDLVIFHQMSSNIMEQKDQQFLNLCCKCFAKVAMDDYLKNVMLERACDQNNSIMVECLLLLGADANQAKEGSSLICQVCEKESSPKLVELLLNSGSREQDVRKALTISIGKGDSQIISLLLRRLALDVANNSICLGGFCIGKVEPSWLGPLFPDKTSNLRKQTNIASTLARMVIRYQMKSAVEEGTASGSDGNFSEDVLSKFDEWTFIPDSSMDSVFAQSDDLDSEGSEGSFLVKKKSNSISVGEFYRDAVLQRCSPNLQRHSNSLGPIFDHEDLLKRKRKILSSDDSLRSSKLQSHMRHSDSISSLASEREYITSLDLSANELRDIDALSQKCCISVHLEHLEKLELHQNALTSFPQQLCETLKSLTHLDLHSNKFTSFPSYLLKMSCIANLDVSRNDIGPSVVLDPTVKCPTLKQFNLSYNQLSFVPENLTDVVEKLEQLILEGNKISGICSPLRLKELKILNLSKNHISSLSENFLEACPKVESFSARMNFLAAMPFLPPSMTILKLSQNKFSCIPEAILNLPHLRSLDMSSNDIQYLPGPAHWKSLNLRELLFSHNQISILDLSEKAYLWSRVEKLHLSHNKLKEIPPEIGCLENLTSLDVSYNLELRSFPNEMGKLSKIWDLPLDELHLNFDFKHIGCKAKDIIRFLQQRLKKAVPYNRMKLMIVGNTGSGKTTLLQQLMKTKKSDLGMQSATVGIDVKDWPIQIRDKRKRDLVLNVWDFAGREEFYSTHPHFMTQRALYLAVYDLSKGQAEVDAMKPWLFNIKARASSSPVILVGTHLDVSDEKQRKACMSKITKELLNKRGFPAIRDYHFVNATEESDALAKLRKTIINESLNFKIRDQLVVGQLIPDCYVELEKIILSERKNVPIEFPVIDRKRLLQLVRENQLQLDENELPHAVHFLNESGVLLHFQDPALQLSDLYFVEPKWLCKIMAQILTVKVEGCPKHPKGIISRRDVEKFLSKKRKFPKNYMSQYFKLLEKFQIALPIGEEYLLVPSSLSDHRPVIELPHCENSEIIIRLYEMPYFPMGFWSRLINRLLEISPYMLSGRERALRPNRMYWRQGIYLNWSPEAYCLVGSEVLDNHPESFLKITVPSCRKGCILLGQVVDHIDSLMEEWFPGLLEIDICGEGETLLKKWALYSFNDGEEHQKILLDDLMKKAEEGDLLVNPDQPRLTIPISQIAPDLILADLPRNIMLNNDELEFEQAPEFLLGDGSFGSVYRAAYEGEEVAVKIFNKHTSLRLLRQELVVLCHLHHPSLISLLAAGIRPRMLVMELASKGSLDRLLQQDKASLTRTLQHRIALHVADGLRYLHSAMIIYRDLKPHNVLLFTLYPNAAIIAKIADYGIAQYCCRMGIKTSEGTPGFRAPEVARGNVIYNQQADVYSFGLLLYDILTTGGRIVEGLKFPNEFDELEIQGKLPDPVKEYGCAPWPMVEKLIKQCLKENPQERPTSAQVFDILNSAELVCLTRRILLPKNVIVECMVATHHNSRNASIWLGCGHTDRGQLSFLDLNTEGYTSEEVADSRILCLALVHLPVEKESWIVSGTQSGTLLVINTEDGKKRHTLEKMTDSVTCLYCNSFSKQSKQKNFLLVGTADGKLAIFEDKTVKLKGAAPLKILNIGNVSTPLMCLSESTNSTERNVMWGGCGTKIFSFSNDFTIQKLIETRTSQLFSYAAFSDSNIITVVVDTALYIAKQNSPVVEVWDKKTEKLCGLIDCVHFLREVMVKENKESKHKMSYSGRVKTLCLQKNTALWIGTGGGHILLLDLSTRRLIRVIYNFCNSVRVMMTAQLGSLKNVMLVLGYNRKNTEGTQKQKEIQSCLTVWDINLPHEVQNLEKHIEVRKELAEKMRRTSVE
In short: (§1)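 Competition binding against immobilized biotinylated ligand for DNA-tagged wild-type or G2019S LRRK2, produced from T7 phage-infected E. coli (MOI 0.4, 32° C.) lysate then HEK293 cells. Beads blocked and washed in SeaBlock buffer (1% BSA, 0.05% Tween 20, 1 mM DTT); compounds prepared as 40× stocks in 100% DMSO.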

[17] = molecular target: LRRK2 mutant (G2019S) (Homo sapiens (Human), UniProt Q5S007, G2019S); assay: Evaluation of inhibitory activity against LRRK2 (affinity bead competition binding), G2019S mutant; settings: read-out: Residual active values (%) LRRK2(G2019S); for remaining binding at 0.1 µM: 100 nM; for remaining binding at 0.5 µM: 500 nM
LRRK2 mutant (G2019S), sequence (Q5S007 whole entry G2019S, looked up): as the sequence (Q5S007 whole entry, looked up) above, with G2019S counted along it
In short: as §1

[18] = molecular target: MLK3 (Homo sapiens (Human), UniProt Q16584); assay: Evaluation of inhibitory activity of enzyme units, MLK3 ([γ-33P]-ATP filter assay)
MLK3, sequence (Q16584 whole entry, looked up): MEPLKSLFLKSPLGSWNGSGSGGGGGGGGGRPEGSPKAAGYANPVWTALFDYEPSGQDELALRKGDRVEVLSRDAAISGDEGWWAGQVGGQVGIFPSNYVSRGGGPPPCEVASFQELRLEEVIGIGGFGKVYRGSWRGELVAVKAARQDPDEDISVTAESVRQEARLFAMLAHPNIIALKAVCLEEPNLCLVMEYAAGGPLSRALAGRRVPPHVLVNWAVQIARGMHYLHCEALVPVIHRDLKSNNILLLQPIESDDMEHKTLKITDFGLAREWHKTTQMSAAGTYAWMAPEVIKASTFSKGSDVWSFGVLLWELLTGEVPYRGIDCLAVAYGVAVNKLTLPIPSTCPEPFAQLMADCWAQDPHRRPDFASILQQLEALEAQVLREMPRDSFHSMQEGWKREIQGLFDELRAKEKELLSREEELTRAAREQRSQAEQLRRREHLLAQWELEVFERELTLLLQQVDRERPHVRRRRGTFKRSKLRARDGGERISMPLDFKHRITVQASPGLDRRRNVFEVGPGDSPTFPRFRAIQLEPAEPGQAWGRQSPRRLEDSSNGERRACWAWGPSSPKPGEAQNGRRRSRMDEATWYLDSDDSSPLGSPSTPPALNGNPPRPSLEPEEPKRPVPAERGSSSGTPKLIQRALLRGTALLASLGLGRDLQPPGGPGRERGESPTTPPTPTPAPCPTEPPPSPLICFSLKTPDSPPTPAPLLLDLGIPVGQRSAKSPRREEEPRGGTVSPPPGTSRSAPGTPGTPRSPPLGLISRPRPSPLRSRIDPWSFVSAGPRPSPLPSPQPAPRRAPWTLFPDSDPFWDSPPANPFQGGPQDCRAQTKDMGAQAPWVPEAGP

[19] = molecular target: MLK2 (Homo sapiens (Human), UniProt Q02779); assay: Evaluation of inhibitory activity of enzyme units, MLK2 ([γ-33P]-ATP filter assay); assay type: biochemical
[20] = system: α-SMA; assay: Fibrosis inhibition evaluation 2, palmitic acid-induced HepG2, real-time PCR, α-SMA; settings: palmitic acid-induced HepG2 (Table 8)
[21] = system: TGF-β1; assay: Fibrosis inhibition evaluation 2, palmitic acid-induced HepG2, real-time PCR, TGF-β1
[22] = system: Fibronectin-1; assay: Fibrosis inhibition evaluation 2, palmitic acid-induced HepG2, real-time PCR, Fibronectin-1
[23] = U-937, 10 μM, 72 hours, CCK-8 (Table 3)
[24] = 10 μM, 72 hours, CCK-8, read-out: Cancer cell proliferation inhibitory activity Jurkat
[25] = 72 h, read-out: Cancer cell proliferation inhibitory activity Jurkat

CCS(=O)(=O)N1CC[C@H](Nc2c(Br)cnc3nc(-c4cc(C)n(-c5ccc(OCCN6CCOCC6)cc5)c4C)[nH]c23)C1 [Example 4, (S)-6-bromo-2-(2,5-dimethyl-1-(4-(2-morpholinoethoxy)phenyl)-1H-pyrrol-3-yl)-N-(1-(ethylsulfonyl)pyrrolidine-3-yl)-1H-imidazo[4,5-b]pyridine-7-amine]
inhibition at 10 µM ([1]; MDA-MB-231, 10 μM, 72 hours, CCK-8, read-out: Cancer cell proliferation inhibitory activity MDAMB231): 10 to 50% | inhibition at 10 µM ([2]; U-937, 10 μM, 72 hours, CCK-8 (Table 2)): > 50% | inhibition at 10 µM ([3]; HT-29, 10 μM, 72 hours, CCK-8): > 50% | inhibition at 10 µM ([4]; K562, 10 μM, 72 hours, CCK-8): > 50% | inhibition at 10 µM [5, 23]: > 50% | inhibition at 10 µM [6, 24]: > 50% | inhibition at 10 µM ([7]; 10 μM, 72 hours, CCK-8): > 50% | EC50 [8]: 11.1 µM | Selectivity index: CC50/EC50 HK [9]: >10.2 | EC50 [9]: 9.8 µM | Selectivity index: CC50/EC50 LE [10]: >10.1 | EC50 [10]: 9.9 µM | CC50 at 3 days [11]: > 100 µM

CCS(=O)(=O)N1CC[C@H](Nc2c(Br)cnc3[nH]c(-c4cc(C)n(-c5cc(NS(C)(=O)=O)ccc5C)c4C)nc23)C1 [Example 7, N-(3-(3-(6-bromo-7-(((S)-1-(ethylsulfonyl)pyrrolidine-3-yl)amino)-3H-imidazo[4,5-b]pyridine-2-yl)-2,5-dimethyl-1H-pyrrol-1-yl)-4-methylphenyl) methanesulfonamide]
IC50 [12]: 44 nM | inhibition at 10 µM ([1]; MDA-MB-231, 72 h, read-out: Cancer cell proliferation inhibitory activity MDAMB231): 10 to 50% | inhibition at 10 µM ([2]; U-937, 72 h): > 50% | inhibition at 10 µM ([3]; HT-29, 72 h): 10 to 50% | inhibition at 10 µM ([4]; K562, 72 h): > 50% | inhibition at 10 µM ([5]; U-937, 72 h): > 50% | inhibition at 10 µM [6, 25]: > 50% | inhibition at 10 µM ([7]; 72 h): > 50% | Relative degree of expression inhibition (%) α-SMA [13]: 73.1% | Relative degree of expression inhibition (%) Col1A1 [14]: 200.2% | Relative degree of expression inhibition (%) Col6A3 [15]: 116.2% | remaining binding at 0.1 µM [16]: 2.9% | remaining binding at 0.5 µM [16]: 0.4% | remaining binding at 0.1 µM [17]: 2.3% | remaining binding at 0.5 µM [17]: 1.5% | EC50 [8]: 31.9 µM | Selectivity index: CC50/EC50 HK [9]: >2.5 | EC50 [9]: 40 µM | EC50 [10]: > 100 µM | CC50 at 3 days [11]: > 100 µM | IC50 ([18]; read-out: IC50(nM) MLK3): 6 nM

CCS(=O)(=O)N1CC[C@H](Nc2c(Br)cnc3nc(-c4cc(C)n(-c5cccc(NS(C)(=O)=O)c5)c4C)[nH]c23)C1 [Example 12, (S)—N-(3-(3-(6-bromo-7-((1-(ethylsulfonyl)pyrrolidine-3-yl)amino)-1H-imidazo[4,5-b]pyridine-2-yl)-2,5-dimethyl-1H-pyrrol-1-yl)phenyl) methanesulfonamide]
IC50 [19]: 65 nM | IC50 [12]: 52 nM | inhibition at 10 µM ([5]; U-937, 72 h): 10 to 50% | inhibition at 10 µM [6, 25]: 10 to 50% | inhibition at 10 µM ([7]; 72 h): > 50% | remaining binding at 0.1 µM [16]: 16% | remaining binding at 0.5 µM [16]: 3.7% | remaining binding at 0.1 µM [17]: 3.6% | remaining binding at 0.5 µM [17]: 0.5% | EC50 [8]: 100 µM | Selectivity index: CC50/EC50 HK [9]: >3.7 | EC50 [9]: 27 µM | EC50 [10]: > 100 µM | CC50 at 3 days [11]: > 100 µM | IC50 ([18]; read-out: IC50(nM) MLK3): 7 nM | Relative degree of expression inhibition (%) α-SMA [20]: 49.92% | Relative degree of expression inhibition (%) TGF-β1 [21]: 113.03% | Relative degree of expression inhibition (%) Fibronectin-1 [22]: 74.32%

CCS(=O)(=O)N1CC[C@H](Nc2c(Br)cnc3[nH]c(-c4cc(C)n(-c5cc(S(N)(=O)=O)ccc5Cl)c4C)nc23)C1 [Example 17, 3-(3-(6-bromo-7-(((S)-1-(ethylsulfonyl)pyrrolidine-3-yl)amino)-3H-imidazo[4,5-b]pyridine-2-yl)-2,5-dimethyl-1H-pyrrol-1-yl)-4-chlorobenzenesulfonamide]
inhibition at 10 µM [5, 23]: 10 to 50% | inhibition at 10 µM [6, 24]: > 50% | inhibition at 10 µM ([7]; 10 μM, 72 hours, CCK-8): > 50% | Selectivity index: CC50/EC50 PR8 [8]: >1.1 | EC50 [8]: 92.9 µM | Selectivity index: CC50/EC50 HK [9]: >9.3 | EC50 [9]: 10.8 µM | EC50 [10]: > 100 µM | CC50 at 3 days [11]: > 100 µM | IC50 [18]: 12 nM

CCS(=O)(=O)N1CC[C@H](Nc2c(Br)cnc3nc(-c4cc(C)n(-c5cccc(S(N)(=O)=O)c5)c4C)[nH]c23)C1 [Example 23, (S)-3-(3-(6-bromo-7-((1-(ethylsulfonyl)pyrrolidine-3-yl)amino)-1H-imidazo[4,5-b]pyridine-2-yl)-2,5-dimethyl-1H-pyrrol-1-yl)benzenesulfonamide]
IC50 [19]: 56 nM | IC50 [12]: 25 nM | inhibition at 10 µM ([5]; U-937, 72 h): 10 to 50% | inhibition at 10 µM [6, 25]: > 50% | inhibition at 10 µM ([7]; 72 h): 10 to 50% | EC50 [8]: > 100 µM | Selectivity index: CC50/EC50 HK [9]: >3.2 | EC50 [9]: 31.6 µM | EC50 [10]: > 100 µM | CC50 at 3 days [11]: > 100 µM | IC50 ([18]; read-out: IC50(nM) MLK3): 17 nM
